# Laboratory results from patent US20150307461A1, “ANTIVIRAL COMPOUNDS” (priority 2012, published 2015).
# Legend:
# [1] = tested on: Pseudotyped HCV GT1a particles (HCVpp); test: microbe, parasite or virus in culture; assay type: cell-based, HCV GT1a H77 strain; details: Hepatitis C virus, 72 h, read-out: HCVpp GT-1a (EC50, μM)
# [2] = tested on: pseudotyped VSV G particles (VSVpp); test: microbe, parasite or virus in culture; assay type: cell-based; details: Vesicular stomatitis virus, 72 h, read-out: VSVpp (EC50, μM)
SMILES,EC50 [1] [µM],EC50 [2] [µM]
"Nc1nc(Nc2cccc(C(F)(F)F)c2F)n[nH]1 [Compound I-53, N^3-(2-Fluoro-3-trifluoromethyl-phenyl)-1H-[1,2,4]triazole-3,5-diamine]",100,100
"N#CCN(c1cc(Cl)cc(Cl)c1)c1n[nH]c(N)n1 [Compound I-30, [(5-Amino-1H-[1,2,4]triazol-3-yl)-(3,5-dichloro-phenyl)-amino]-acetonitrile]",14.5,100
"Nc1nc(N(Cc2ccccc2)c2cc(Cl)cc(Cl)c2)n[nH]1 [Compound I-29, N*3*-Benzyl-N*3*-(3,5-dichloro-phenyl)-1H-[1,2,4]triazole-3,5-diamine]",6.49,7.5
"CN(c1cc(Cl)c(Cl)c(Cl)c1)c1n[nH]c(N)n1 [Compound I-27, N*3*-Methyl-N*3*-(3,4,5-trichloro-phenyl)-1H-[1,2,4]triazole-3,5-diamine]",21.1,94.4
"Nc1nc(Nc2ccc(S(F)(F)(F)(F)F)cc2)n[nH]1 [Compound I-75, N*3*-(4-pentafluorosulfur-phenyl)-1H-[1,2,4]triazole-3,5-diamine]",14.3,100
"CS(=O)(=O)Nc1cccc(Nc2n[nH]c(N)n2)c1 [Compound I-33, N-[3-(5-Amino-1H-[1,2,4]triazol-3-ylamino)-phenyl]-methanesulfonamide]",100,100
"CN(C)C(=O)c1ccc(Nc2n[nH]c(N)n2)cc1Cl [Compound I-78, 4-(5-Amino-1H-[1,2,4]triazol-3-ylamino)-2-chloro-N,N-dimethyl-benzamide]",32.1,100
"Nc1nc(Nc2cccc(C(=O)O)c2)n[nH]1 [Compound I-31, 3-(5-Amino-1H-[1,2,4]triazol-3-ylamino)-benzoic acid]",100,100
"N#CC1(c2cccc(Nc3n[nH]c(N)n3)c2)CC1 [Compound I-59, 1-[3-(5-Amino-1H-[1,2,4]triazol-3-ylamino)-phenyl]-cyclopropanecarbonitrile]",1.46,100
"Nc1nc(Nc2cccc(CC(F)(F)F)c2)n[nH]1 [Compound I-55, N^3-[3-(2,2,2-Trifluoro-ethyl)-phenyl]-1H-[1,2,4]triazole-3,5-diamine]",10.3,100
"Cn1nc(N)nc1Nc1cc(F)cc(S(F)(F)(F)(F)F)c1 [Compound I-74, N*5*-(3-Fluoro-5-pentafluorosulfur-phenyl)-1-methyl-1H-[1,2,4]triazole-3,5-diamine]",34.3,100
"N#Cc1ccc(Nc2n[nH]c(N)n2)cc1S(=O)(=O)C(F)(F)F [Compound I-34, 4-(5-Amino-1H-[1,2,4]triazol-3-ylamino)-2-trifluoromethanesulfonyl-benzonitrile]",0.2,> 1
"Nc1nc(Nc2cc(Cl)c(Cc3nnn[nH]3)c(C(F)(F)F)c2)n[nH]1 [Compound I-90, N3-(4-((1H-tetrazol-5-yl)methyl)-3-chloro-5-(trifluoromethyl)phenyl)-1H-1,2,4-triazole-3,5-diamine]",24.4,100
"Cn1nc(N)nc1Nc1cccc(S(F)(F)(F)(F)F)c1 [Compound I-71, 1-Methyl-N*5*-(3-pentafluorosulfur-phenyl)-1H-[1,2,4]triazole-3,5-diamine]",100,100
"CN(c1cc(Cl)cc(Cl)c1)c1n[nH]c(N)n1 [Compound I-28, N*3*-(3,5-Dichloro-phenyl)-N*3*-methyl-1H-[1,2,4]triazole-3,5-diamine]",82.8,100
"Cc1ccc(Nc2n[nH]c(N)n2)cc1Cl [Compound I-76, N^3-(3-Chloro-4-methyl-phenyl)-1H-[1,2,4]triazole-3,5-diamine]",0.791,100
"Nc1nc(Nc2cccc(C(=O)c3ccccc3)c2)n[nH]1 [Compound I-58, [3-(5-Amino-1H-[1,2,4]triazol-3-ylamino)-phenyl]-phenyl-methanone]",4.08,–
